Several values for one entry are separate records, joined by “and”; a condition that tells them apart may be missing. Identical values can stand only once.
Conditions: Crystal

[Cl][Er]([Cl])[Cl] [erbium trichloride]
Conditions | vapor or sublimation pressure
880 K | 1.07e-05 kPa
892 K | 1.58e-05 kPa
897 K | 2.14e-05 kPa
903 K | 2.69e-05 kPa
907 K | 1.7e-05 kPa and 3.24e-05 kPa
913 K | 4.27e-05 kPa
916 K | 5.13e-05 kPa
920 K | 3.39e-05 kPa
921 K | 5.89e-05 kPa
923 K | 3.39e-05 kPa
925 K | 4.27e-05 kPa and 6.92e-05 kPa
929 K | 5.01e-05 kPa
932 K | 5.01e-05 kPa and 4.27e-05 kPa
933 K | 0.0001023 kPa
935 K | 5.01e-05 kPa and 0.0001072 kPa
936 K | 6.76e-05 kPa
943 K | 0.0001445 kPa [middle of 4 runs]
948 K | 0.0001349 kPa
949 K | 8.51e-05 kPa
950 K | 0.0001995 kPa
951 K | 0.0001995 kPa
952 K | 0.0001175 kPa
953 K | 0.0001349 kPa
954 K | 0.0001 kPa
958 K | 0.0001514 kPa and 0.0001862 kPa
959 K | 0.0002754 kPa
960 K | 0.0002754 kPa
963 K | 0.0001698 kPa [middle of 4 runs]
968 K | 0.0002188 kPa and 0.0002692 kPa and 0.0003715 kPa
970 K | 0.0002188 kPa and 0.0003802 kPa
972 K | 0.0002692 kPa
976 K | 0.0002344 kPa
977 K | 0.0003981 kPa and 0.0002455 kPa
978 K | 0.0003236 kPa
981 K | 0.0003715 kPa
983 K | 0.0004898 kPa
986 K | 0.0004365 kPa
988 K | 0.0003467 kPa
990 K | 0.000631 kPa and 0.0004074 kPa and 0.0005012 kPa
995 K | 0.0005754 kPa and 0.000631 kPa
997 K | 0.0008318 kPa
998 K | 0.0004786 kPa
999 K | 0.0006761 kPa
1003 K | 0.0006607 kPa and 0.0008511 kPa
1004 K | 0.0007762 kPa
1008 K | 0.0009333 kPa and 0.0006761 kPa
1012 K | 0.001071 kPa
1013 K | 0.001097 kPa
1014 K | 0.001412 kPa
1016 K | 0.001071 kPa
1017 K | 0.001288 kPa
1018 K | 0.0009333 kPa
1021 K | 0.001445 kPa
1022 K | 0.001514 kPa
1025 K | 0.00195 kPa and 0.001698 kPa
1028 K | 0.001318 kPa
1030 K | 0.001514 kPa and 0.00195 kPa
1031 K | 0.002138 kPa
1033 K | 0.002512 kPa
1034 K | 0.002512 kPa
1037 K | 0.002455 kPa
1040 K | 0.002818 kPa and 0.003162 kPa and 0.002344 kPa

[Br][Er]([Br])[Br] [erbium bromide (ErBr3)]
Conditions | vapor or sublimation pressure
919 K | 2.82e-05 kPa
930 K | 4.17e-05 kPa and 7.08e-05 kPa
941 K | 7.08e-05 kPa
942 K | 8.91e-05 kPa and 0.0001122 kPa
948 K | 9.77e-05 kPa
952 K | 0.000123 kPa
954 K | 0.0001413 kPa
956 K | 0.000182 kPa
959 K | 0.0001413 kPa
961 K | 0.0001995 kPa
962 K | 0.0001778 kPa
964 K | 0.000195 kPa
966 K | 0.0001995 kPa
968 K | 0.000182 kPa
970 K | 0.0002692 kPa and 0.0002455 kPa
971 K | 0.0002951 kPa
973 K | 0.0002692 kPa
977 K | 0.0003467 kPa
979 K | 0.0003311 kPa and 0.0002818 kPa
982 K | 0.0003631 kPa
984 K | 0.0004898 kPa
988 K | 0.0004786 kPa
989 K | 0.0004677 kPa
990 K | 0.0004898 kPa
993 K | 0.0005623 kPa and 0.0004169 kPa
998 K | 0.000631 kPa and 0.0006166 kPa and 0.0007943 kPa
1004 K | 0.0009333 kPa
1007 K | 0.0008318 kPa
1008 K | 0.0006761 kPa and 0.0008511 kPa
1009 K | 0.000871 kPa
1010 K | 0.0009772 kPa
1015 K | 0.001349 kPa
1018 K | 0.001148 kPa and 0.001122 kPa
1020 K | 0.001 kPa
1025 K | 0.001698 kPa and 0.001445 kPa
1026 K | 0.001514 kPa
1028 K | 0.002089 kPa
1033 K | 0.002138 kPa and 0.001585 kPa
1036 K | 0.002042 kPa and 0.00257 kPa and 0.002089 kPa
1045 K | 0.002951 kPa and 0.002818 kPa
1051 K | 0.003631 kPa
1056 K | 0.00389 kPa
1058 K | 0.004365 kPa

[I][Er]([I])[I] [erbium iodide]
Conditions | vapor or sublimation pressure
871 K | 5.37e-05 kPa
873 K | 5.37e-05 kPa
876 K | 8.51e-05 kPa
884 K | 0.0001072 kPa
886 K | 7.94e-05 kPa and 0.0001047 kPa and 5.75e-05 kPa
889 K | 9.33e-05 kPa
890 K | 0.0001047 kPa
891 K | 0.0001479 kPa
897 K | 0.0001349 kPa
898 K | 0.0001349 kPa and 0.0001905 kPa
903 K | 0.0001622 kPa and 0.0002089 kPa
904 K | 0.0002344 kPa and 0.0002089 kPa
906 K | 0.0001995 kPa
907 K | 0.0001288 kPa
912 K | 0.0002138 kPa and 0.0003162 kPa
913 K | 0.0002692 kPa and 0.000302 kPa
915 K | 0.0002344 kPa
916 K | 0.0001738 kPa
918 K | 0.0002951 kPa and 0.0004074 kPa
923 K | 0.0004169 kPa
924 K | 0.0005129 kPa and 0.0003388 kPa
928 K | 0.0002754 kPa
929 K | 0.0003715 kPa
930 K | 0.000631 kPa and 0.000537 kPa and 0.0005754 kPa
932 K | 0.0004169 kPa
934 K | 0.0002884 kPa
936 K | 0.0006166 kPa and 0.0008318 kPa
937 K | 0.0003631 kPa
939 K | 0.0007586 kPa
940 K | 0.0005623 kPa and 0.000537 kPa and 0.0007586 kPa
943 K | 0.001071 kPa
945 K | 0.0004786 kPa
946 K | 0.0005129 kPa
947 K | 0.0007413 kPa
948 K | 0.000955 kPa
949 K | 0.001349 kPa and 0.001023 kPa and 0.001047 kPa
950 K | 0.0007762 kPa
952 K | 0.000537 kPa
955 K | 0.0006457 kPa
956 K | 0.001698 kPa
957 K | 0.0009772 kPa
958 K | 0.001445 kPa
959 K | 0.00123 kPa
961 K | 0.0007413 kPa
962 K | 0.001698 kPa
963 K | 0.001698 kPa and 0.001202 kPa and 0.0008913 kPa
966 K | 0.00195 kPa and 0.001023 kPa
968 K | 0.00257 kPa
969 K | 0.001514 kPa
971 K | 0.001906 kPa
972 K | 0.00123 kPa
973 K | 0.002455 kPa
974 K | 0.003162 kPa and 0.00257 kPa and 0.001175 kPa
976 K | 0.002042 kPa
978 K | 0.002884 kPa
979 K | 0.002951 kPa
980 K | 0.003802 kPa and 0.001622 kPa
981 K | 0.001778 kPa
982 K | 0.002512 kPa
983 K | 0.003388 kPa
984 K | 0.003548 kPa
986 K | 0.003236 kPa
987 K | 0.00182 kPa
988 K | 0.002089 kPa
989 K | 0.004266 kPa
990 K | 0.003236 kPa
992 K | 0.004266 kPa and 0.004467 kPa
994 K | 0.004786 kPa
995 K | 0.002951 kPa
996 K | 0.002754 kPa
997 K | 0.004169 kPa
999 K | 0.004786 kPa and 0.005754 kPa
1001 K | 0.00631 kPa and 0.002884 kPa
1004 K | 0.006457 kPa and 0.005129 kPa
1006 K | 0.006918 kPa
1007 K | 0.007079 kPa
1008 K | 0.004677 kPa and 0.00389 kPa
1010 K | 0.007943 kPa
1011 K | 0.008318 kPa
1012 K | 0.006761 kPa
1015 K | 0.004571 kPa
1016 K | 0.005129 kPa
1017 K | 0.01 kPa
1018 K | 0.008128 kPa
1019 K | 0.01047 kPa
1026 K | 0.01318 kPa
1030 K | 0.006918 kPa
1036 K | 0.01778 kPa
1045 K | 0.01023 kPa
1046 K | 0.02455 kPa
1059 K | 0.03548 kPa
1070 K | 0.04898 kPa
1082 K | 0.06918 kPa
